One experiment deals with Salmonella. Put plainly: In vitro Salmonella growth inhibition. The class given is cell-based.
A further experiment has as its system HilA expression. Kind of experiment: Invasive gene expression (HilA expression) in Salmonella. The class given is cell-based.
In experiment [1] the test system is GLP-2 positive cells in the small intestine (jejunum and ileum). Put plainly: Quantification of GLP-2 positive cells in villi and crypts of jejunum and ileum of broiler chickens fed supplemented feed. Format: in vivo, Ross broiler chickens. As to conditions: 5.6 g/kg feed from day of hatch, sampled at age of ten days. An excerpt: […] one-day-old Ross broiler chickens were obtained from a local hatchery. The animals were divided at random in two equal groups: one experimental groups, and one control group. The groups were housed on wood shavings in separate containers of 0.96 m^2. Commercial feed and drinking water was provided ad libitum, From the day of hatch, the experimental group received feed supplemented with glyceryl monovalerate (MV; Perstorp, 5.6 g/kg feed), according to the suppliers recommendations (in-feed supplementation). The control group, received unsupplemented feed. At the age of ten days, the animals were killed by injecting an intravenous overdose of pentobarbital and sampling was performed. Samples (1 cm in length) of jejunum and ileumn were submerged in 4% phosphate buffered (wt/vol) formaldehyde within 15 minutes after euthanasia. […] For each animal, the area of 10 randomly chosen villi and 30 randomly chosen crypts was measured for jejunum and ileum using LAS V3.8 software (Leica Microsystems GmbH, Wetzlar, Germany). In total 80 areas per bird were analysed. For every defined area, the number of cells was counted at magnification ×400. Only cells with a detectable nucleus were counted. The average number of cells per area villus or crypt (cells/mm^2) was calculated for each bird. […]

As for `CCCCC(=O)OCC(O)CO` (stereo not shown) [glyceryl monovalerate], the “inhibition of Salmonella growth” value in the experiment on Salmonella was “effective inhibitor”. Also, the “invasive gene expression (HilA expression) in Salmonella” value in the experiment with HilA expression is “down-regulated”. Moreover, the “average number of GLP-2 positive cells in the villi of jejunum and ileum, experimental group vs control group” value in experiment [1] (P≤0.001, FIG. 1) was “statistically higher”. Also, the “average numbers of GLP2-positive cells in the crypts of jejunum and ileum, experimental group vs control group” value in experiment [1] (P≤0.05, FIG. 2) is “statistically higher”.

These data come from patent US10576052B2, “Composition preventing bacterial inflammation in monogastric animals” (PERSTORP AB, priority 2015, dated 2020).
